Reference: US20220315908A1, “NOVEL GARDNERELLA ENDOLYSINS AND USES THEREOF” (priority 2019, published 2022)
Values after ≈ are worked out from the molar mass of the structure shown.

Tested on: G. vaginalis (Gv_9)
Assay: MIC and MBC microbroth dilution
Format: cell-based, Gardnerella vaginalis
Settings: for MIC / MBC: Gardnerella vaginalis; for MIC: 48 h
Procedure: One of the main deficiencies in the treatment of BV is the high rate of recurrence in many women, which leads to repeated administration of antibiotics and concomitant destabilization of the microbiome and other side effects. The minimal inhibitory concentration (MIC) and minimal bactericidal concentration (MBC) on Gardnerella cells of the strains also used for the endolysin activity assays were then measured using the method described in Reference Example 6 and 7. […] Essentially, Gardnerella suspensions at 2.5×10^7 CFU/ml were incubated with the concentration of antibiotics as indicated and incubated for 48 h at 37° C. under anaerobic conditions. […] OD(610) was measured at the beginning and the end of the experiment. At the end of the experiment, 2 ul of each reaction mix was spotted on agar to determine the MBC.
The conditions under which MIC and MBC were measured are more rigorous than the standard.
Example 7—Activity assays of a representative (H2B10) of domain swapped endolysins on the growth in suspension of different Gardnerella strains. […] The conditions under which MBC was measured are more rigorous than the standard. […] In general, it is known, that antibiotics only insufficiently eradicate the Gardnerella biofilm, a hallmark of BV, which is one suspected reason for the reported very high recurrence rate of BV. Despite leaving residual viable biofilm, antibiotics wipe parts of the beneficial organisms of the vaginal microbiome which then opens an ecological niche for other pathogens, e.g. fungi.
Bacteria were plated from cryo stock on BD Choc Agar plates (Gardnerella) and incubated at 37° C. for 48 h under anaerobic conditions. Colonies were scraped from the plate, resuspended in Hardy Broth or NYC-III-HS-pH 5.0, and the suspension adjusted to OD (610 or 620 nm as indicated) 0.05. It has to be noted that two Tecan Microplate readers, having respectively a 610 nm or 620 nm filter, have been used interchangeably in the experiments. Although it doesn't make any difference for the experiments, the exact wavelength used is specified in each example. Antibiotics were prepared as 20× stocks for each of the required final concentrations. 95 μl of cell suspension was mixed with 5 μl antibiotics dilution in a 384-well plate. OD (610-620 as indicated) at the start of the reaction was measured, then the plate was incubated at 37° C. for 48 h under anaerobic conditions. After that, the OD (610-620 as indicated) was measured again for MIC determination, where MIC was defined as the lowest concentration of antibiotic where the OD (610-620 as indicated) was not above the level measured at the beginning of the experiment. After measuring OD, 2 μl of each well were spotted on a NYC-III+HS Agar plate. The plates were then incubated for further 48 h at 37° C. under anaerobic conditions. After incubation, cell growth on each spot was evaluated, and the MBC defined as the lowest concentration of antibiotics where no bacteria grew on the plate. The experiments were conducted in triplicate for each condition. In the second round of MIC and MBC experiments with antibiotics the Gardnerella cell suspension was adjusted to the McFarland standard 0.5 (approximately OD (610) 0.07) and then diluted 1:75 according to the CLSI (Clinical and Laboratory Standards Institute) standards. Antibiotics were prepared according to the CLSI standards and 50 μl of cell suspension was mixed in a 96-well plate with 50 μl antibiotics. Otherwise the MIC and MBC was determined as described above.

MIC (first round: […]10^7 CFU/ml, Hardy broth, 384-well, 48 h 37° C. anaerobic): 128 µg/mL (≈ 748 µM)
MIC (second round: 1×10^5-1×10^6 CFU/ml (CLSI), NYC-III broth, 96-well, 48 h anaerobic): 8 µg/mL (≈ 46.7 µM)
resistance class of MIC, Metronidazole (first round): R (>=32 μg/mi for Metronidazole)
Compound: Cc1ncc([N+](=O)[O-])n1CCO [Metronidazole]
MBC (first round: […]10^7 CFU/ml, minimal concentration fully eradicating the suspension): > 128 µg/mL
MBC (second round: 1×10^5-1×10^6 CFU/ml (CLSI), NYC-III broth, 96-well): 16 µg/mL (≈ 93.5 µM)
resistance class given with MBC, Metronidazole (second round): R (>=32 μg/mi for Metronidazole)
